Reference: patent US6956049B1, “Methods of modulating processes mediated by excitatory amino acid receptors” (Merck & Co., Inc., priority 1999, dated 2005)
pIC50: −log10 of the molar value. Counter-ions that a name gives are not always drawn.

Legend:
[1] = target: T1, hmGluR5a receptor (Homo sapiens, UniProt P41594); test: Calcium flux assay; assay type: cell-based; settings: hmGluR5a/L38-20 cells (mouse fibroblast Ltk), fura-2, glutamate 10 μM (EC80); read-out: Ca^2+ Flux
T1 construct: expressed in transfected cells; host or cells: mouse fibroblast Ltk cells (hmGluR5a/L38-20 cell line)
Procedure: The activity of compounds was examined against the hmGluR5a receptor stably expressed in mouse fibroblast Ltk cells (the hmGluR5a/L38-20 cell line). See generally Daggett et al., Neuropharmacology 34:871–886 (1995). Receptor activity was detected by changes in intracellular calcium ([Ca^++]i) measured using the fluorescent calcium-sensitive dye, fura-2. hmGluR5a/L38-20 cells were plated onto 96-well plates, and loaded with 3 μM fura-2 for 1 h. Unincorporated dye was washed from the cells, and the cell plate was transferred to a custom-built 96-channel fluorimeter (SIBIA-SAIC, La Jolla, Calif.) which is integrated into a fully automated plate handling and liquid delivery system. Cells were excited at 350 and 385 nm with a xenon source combined with optical filters. Emitted light was collected from the sample through a dichroic mirror and a 510-nm interference filter and directed into a cooled CCD camera (Princeton Instruments). Image pairs were captured approximately every 1 s, and ratio images were generated after background subtraction. After a basal reading of 20 s, an EC80 concentration of glutamate (10 μM) was added to the well, and the response evaluated for another 60 s. The glutamate-evoked increase in [Ca^++]i in the presence of the screening compound was compared to the response of glutamate alone (the positive control).

[2] = target: T2, hmGluR5 (Homo sapiens, UniProt P41594); test: Phosphatidylinositol hydrolysis (IP1) assay; assay type: cell-based; settings: hmGluR5/L38-20 cells (mouse fibroblast Ltk), [3H]-inositol, 10 μM glutamate, 1 hour; read-out: PI Hydrolysis
T2 construct: expressed in transfected cells; host or cells: mouse fibroblast Ltk cells (hmGluR5/L38-20 cells)
Procedure: Inositol phophate assays were performed as described by Berridge et al. (1982) (Berridge et al, (1982) Biochem. J. 206:587–5950; and Nakajima et al., J. Biol. Chem. 267:2437–2442 (1992)) with slight modifications. Mouse fibroblast Ltk cells expressing hmGluR5 (hmGluR5/L38-20 cells) were seeded in 24-well plates at a density of 8×10^5 cells/well. One μCi of [^3H]-inositol (Amersham PT6-271; Arlington Heights, Ill.; specific activity=17.7 Ci/mmol) was added to each well and incubated for 16 h at 37° C. Cells were washed twice and incubated for 45 min in 0.5 ml of standard Hepes buffered saline buffer (HBS; 125 mM NaCl, 5 mM KCl, 0.62 mM MgSO4, 1.8 mM CaCl2, 20 mM HEPES, 6 mM Glucose, pH to 7.4). The cells were washed with HBS containing 10 mM LiCl, and 400 μl buffer added to each well. Cells were incubated at 37° C. for 20 min. For testing, 50 μl of 10X compounds used in the practice of the invention (made in HBS/LiCl (100 mM)) was added and incubated for 10 minutes. Cells were activated by the addition of 10 μM glutamate, and the plates left for 1 hour at 37° C.
The incubations were terminated by the addition of 1 ml ice-cold methanol to each well. In order to isolate inositol phosphates (IPs), the cells were scraped from wells, and placed in numbered glass test tubes. One ml of chloroform was added to each tube, the tubes were mixed, and the phases separated by centrifugation. IPs were separated on Dowex anion exchange columns (AG 1-X8 100–200 mesh formate form). The upper aqueous layer (750 ul) was added to the Dowex columns, and the columns eluted with 3 ml of distilled water. The eluents were discarded, and the columns were washed with 10 mls of 60 mM ammonium formate/5 mM Borax, which was also discarded as waste. Finally the columns were eluted with 4 ml of 800 mM ammonium formate/0.1 M formic acid, and the samples collected in scintillation vials. Scintillant was added to each vial, and the vials shaken, and counted in a scintillation counter after 2 hours. Phosphatidylinositol hydrolysis in cells treated with test compounds was compared to phosphatidylinositol hydrolysis in cells treated with control and the results are shown in Table 1.

[3] = Assessment of salt forms (solubility, hygroscopicity); assay type: physicochemical; settings: salt form
Procedure: Various salt forms of 2-(phenylethynyl)-1,3-thiazole were prepared, and their solubility, hygroscopicity, and physical state were assessed. The compound 2-phenylethynl-1,3-thiazole was prepared (see Example 8) as well as hydrochloric acid, fumaric acid, methylsulfonic acid and toluene sulfonic acid salt forms of the compound. The hydrochloric acid salt form of 2-(phenylethynyl)-1,3-thiazole is an oil. A fumaric acid salt form was not obtained by preparative steps including trituration with diethylether. Preparation of the methylsulfonate form results in a semi solid, hygroscopic material. These salt forms are typically unsuitable for certain pharmaceutical formulations, such as for tablets, capsules, and the like. In contrast to the salt forms of 2-(phenylethynyl)-1,3-thiazole, described previously, the tosylate salt form (i.e., the toluene sulfonic acid salt) is a solid having a melting point of about 129 up to 131° C. and is non-hygroscopic. Therefore, this form is presently preferred for pharmaceutical formulations of tablets, capsules, and the like.

[4] = tested on: male Sprague-Dawley rats, CFA-inflamed hind paw; test: Analgesic animal model (CFA model); assay type: in vivo; design: key: +++: high analgesic efficacy; settings: rat, 240 μmol/kg intraperitoneal, evaluated one to 24 hours post administration
Procedure: Compounds that modulate receptor-mediated analgesic responses wer tested in an animal model. Robust inflammation was induced by the injection of complete Freund's adjuvant (CFA, 10 mg/ml) subcutaneously into the hind paw of male Sprague-Dawley rats (150–175 g). The inflammatory response to CFA began approximately 12-hrs post-CFA injection and persisted for several days following inoculation. The inflamed hind paw became sensitive to noxious (paw pinch, plantar test) or innocuous (cold plate, Von Frey filaments) stimuli compared to the contralateral hind paw. Test compounds (240 μmol/kg) were administered via intraperitoneal injection. The analgesic activity of compounds was evaluated one to 24-hours post administration by assessing (1) the duration of analgesic effect; (2) threshold to elicit response; and (3) time from painful stimulus to response. […] For each group of animals, responses following drug administration were compared to responses prior to drug administration.

T1 sequence (P41594 21-1180 isoform P41594-2 limits assumed): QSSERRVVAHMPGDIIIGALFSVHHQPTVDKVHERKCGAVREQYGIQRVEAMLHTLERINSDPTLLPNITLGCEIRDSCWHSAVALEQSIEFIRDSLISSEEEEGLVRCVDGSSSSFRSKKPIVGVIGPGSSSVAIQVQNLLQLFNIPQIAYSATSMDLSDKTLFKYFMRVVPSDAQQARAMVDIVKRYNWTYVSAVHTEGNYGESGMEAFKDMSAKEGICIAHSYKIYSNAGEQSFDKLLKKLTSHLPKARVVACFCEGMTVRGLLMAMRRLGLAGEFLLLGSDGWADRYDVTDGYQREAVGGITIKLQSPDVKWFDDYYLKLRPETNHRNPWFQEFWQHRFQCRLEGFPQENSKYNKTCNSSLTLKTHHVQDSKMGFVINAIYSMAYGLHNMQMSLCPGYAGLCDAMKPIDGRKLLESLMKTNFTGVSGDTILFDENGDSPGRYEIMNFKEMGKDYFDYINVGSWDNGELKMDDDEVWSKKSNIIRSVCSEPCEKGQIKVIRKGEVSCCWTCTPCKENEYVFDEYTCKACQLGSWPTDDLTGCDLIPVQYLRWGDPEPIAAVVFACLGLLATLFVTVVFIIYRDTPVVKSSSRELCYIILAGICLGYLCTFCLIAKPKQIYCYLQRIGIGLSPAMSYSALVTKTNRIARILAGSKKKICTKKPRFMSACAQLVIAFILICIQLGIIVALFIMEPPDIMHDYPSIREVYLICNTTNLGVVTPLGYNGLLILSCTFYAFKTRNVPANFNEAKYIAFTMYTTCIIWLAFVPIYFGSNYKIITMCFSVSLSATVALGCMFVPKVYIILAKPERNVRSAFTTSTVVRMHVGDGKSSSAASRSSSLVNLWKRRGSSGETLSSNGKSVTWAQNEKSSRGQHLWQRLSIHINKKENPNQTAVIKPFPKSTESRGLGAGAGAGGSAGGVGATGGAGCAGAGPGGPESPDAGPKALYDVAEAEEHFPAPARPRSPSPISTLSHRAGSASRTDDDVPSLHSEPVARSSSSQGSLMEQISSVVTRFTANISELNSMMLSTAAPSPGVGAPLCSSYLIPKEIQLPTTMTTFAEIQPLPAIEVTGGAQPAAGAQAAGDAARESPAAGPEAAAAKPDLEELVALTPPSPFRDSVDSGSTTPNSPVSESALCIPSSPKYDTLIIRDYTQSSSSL
T2 sequence (P41594 21-1180 isoform P41594-2 limits assumed): as above

Compound	pIC50 [1]	pIC50 [2]	hygroscopicity [3]	solubility in aqueous medium [3]	CFA Model (analgesic efficacy) [4]	melting point
Cc1csc(C=Cc2ccccc2)n1 (mixture of isomers) [Example 2, 4-Methyl-2-[2-phenylethenyl]-1,3-thiazole]	7.00 to 8.00	4.00 to 5.00	–	–	–	–
Cc1coc(/C=C/c2ccccc2)n1 [Example 1, 4-Methyl-2-[(E)-2-phenylethenyl]-1,3-oxazole]	5.00 to 6.00	4.00 to 5.00	–	–	–	–
Cc1nc(/C=C/c2ccccc2)cs1 [Example 3, 2-Methyl-4-[(E)-2-phenylethenyl]-1,3-thiazole]	6.00 to 7.00	5.00 to 6.00	–	–	–	–
Cc1nc(C#Cc2ccccc2)cs1 [Example 4, 2-Methyl-4-(phenylethynyl)-1,3-thiazole, p-toluenesulfonic acid salt]	≥ 8.00	≥ 7.00	–	–	–	–
Nc1nc(C#Cc2ccccc2)cs1 [Example 5, 4-(Phenylethynyl)-1,3-thiazol-2-amine, p-toluenesulfonic acid salt]	7.00 to 8.00	6.00 to 7.00	–	–	–	–
Cc1ncsc1C#Cc1ccccc1 [Example 6, 4-Methyl-5-(phenylethynyl)-1,3-thiazole]	7.00 to 8.00	4.00 to 5.00	–	–	–	–
Cc1ncsc1C#Cc1ccccc1F [Example 7, 5-[(2-Fluorophenyl)ethynyl]-4-methyl-1,3-thiazole]	6.00 to 7.00	< 4.00	–	–	–	–
C(#Cc1nccs1)c1ccccc1.Cc1ccc(S(=O)(=O)O)cc1 [Example 8, 2-(Phenylethynyl)-1,3-thiazole, p-toluenesulfonic acid salt]	≥ 8.00	6.00 to 7.00	non-hygroscopic	soluble in aqueous medium	+++	–
Brc1csc(C#Cc2ccccc2)n1 [Example 9, 4-bromo-2-(phenylethynyl)-1,3-thiazole]	7.00 to 8.00	5.00 to 6.00	–	–	–	79 to 82 °C
Cc1cnc(C#Cc2ccccc2)s1 [Example 10, 5-Methyl-2-(phenylethynyl)-1,3-thiazole]	< 5.00	< 4.00	–	–	–	82 to 83 °C
Cc1cccc(C#Cc2nccs2)c1 [Example 11, 2-[(3-methylphenyl)ethynyl]-1,3-thiazole]	7.00 to 8.00	6.00 to 7.00	–	–	–	–
Fc1ccc(C#Cc2nccs2)cc1 [Example 12, 2-[(4-Fluorophenyl)ethynyl]-1,3-thiazole]	6.00 to 7.00	5.00 to 6.00	–	–	–	78 to 79 °C
Fc1ccccc1C#Cc1nccs1 [Example 13, 2-[(2-Fluorophenyl)ethynyl]-1,3-thiazole]	7.00 to 8.00	6.00 to 7.00	–	–	–	–
Cc1nc(C#Cc2ccccc2)sc1C [Example 14, 4,5-Dimethyl-2-(phenylethynyl)-1,3-thiazole]	≥ 8.00	5.00 to 6.00	–	–	–	55 to 60 °C
Cc1nc(/C=C/c2ccccc2)no1 [Example 15, 5-Methyl-3-[(E)-2-phenylethenyl]-1,2,4-oxadiazole]	< 5.00	< 4.00	–	–	–	166 to 168 °C
C(=C\c1ncno1)/c1ccccc1 [Example 16, 5-[(E)-2-phenylethenyl]-1,2,4-oxadiazole]	< 5.00	< 4.00	–	–	–	53 to 55 °C
Cn1ncnc1/C=C/c1ccccc1 [Example 17, 1-Methyl-5-[(E)-2-phenylethenyl]-1H-1,2,4-triazole]	< 5.00	< 4.00	–	–	–	67 to 70 °C
Cc1n[nH]c(/C=C/c2ccccc2)n1 [Example 18, 3-Methyl-5-[(E)-2-phenylethenyl]-1H-1,2,4-triazole]	< 5.00	< 4.00	–	–	–	131 to 134 °C
CCOC(=O)c1nc(/C=C/c2ccccc2)ns1 [Example 19, Ethyl 3-[(E)-2-phenylethenyl]-1,2,4-thiadiazole-5-carboxylate]	6.00 to 7.00	4.00 to 5.00	–	–	–	79 to 80 °C
OCc1nc(/C=C/c2ccccc2)ns1 [Example 20, {3-[(E)-2-phenylethenyl]-1,2,4-thiadiazol-5-yl}methanol]	5.00 to 6.00	< 4.00	–	–	–	119 to 120 °C
Cc1ccc(C#CC2=CCCCC2)s1 [Example 21, 2-(1-Cyclohexen-1-ylethynyl)-5-methylthiophene]	< 5.00	< 4.00	–	–	–	–
C(#Cc1nccs1)c1ccccc1 [methylsulfonate form, 2-(phenylethynyl)-1,3-thiazole]	–	–	hygroscopic	–	–	–
